This is an account of results in ChEMBL document CHEMBL1208707, “T-type calcium channel blockers: spiro-piperidine azetidines and azetidinones-optimization, design and synthesis” (Bioorg Med Chem Lett, 2010).

In series [1] the target is T1, Voltage-dependent T-type calcium channel subunit alpha-1H (Homo sapiens, UniProt O95180). Nature of the series: Inhibition of human CaV3.2 expressed in HEK293 cells at -100 mV membrane potential by Ionworks HT assay. Format: cell-based. (In general: The patch-clamp technique gives a direct electrical read-out from membranes.)
T1 sequence (O95180 whole entry): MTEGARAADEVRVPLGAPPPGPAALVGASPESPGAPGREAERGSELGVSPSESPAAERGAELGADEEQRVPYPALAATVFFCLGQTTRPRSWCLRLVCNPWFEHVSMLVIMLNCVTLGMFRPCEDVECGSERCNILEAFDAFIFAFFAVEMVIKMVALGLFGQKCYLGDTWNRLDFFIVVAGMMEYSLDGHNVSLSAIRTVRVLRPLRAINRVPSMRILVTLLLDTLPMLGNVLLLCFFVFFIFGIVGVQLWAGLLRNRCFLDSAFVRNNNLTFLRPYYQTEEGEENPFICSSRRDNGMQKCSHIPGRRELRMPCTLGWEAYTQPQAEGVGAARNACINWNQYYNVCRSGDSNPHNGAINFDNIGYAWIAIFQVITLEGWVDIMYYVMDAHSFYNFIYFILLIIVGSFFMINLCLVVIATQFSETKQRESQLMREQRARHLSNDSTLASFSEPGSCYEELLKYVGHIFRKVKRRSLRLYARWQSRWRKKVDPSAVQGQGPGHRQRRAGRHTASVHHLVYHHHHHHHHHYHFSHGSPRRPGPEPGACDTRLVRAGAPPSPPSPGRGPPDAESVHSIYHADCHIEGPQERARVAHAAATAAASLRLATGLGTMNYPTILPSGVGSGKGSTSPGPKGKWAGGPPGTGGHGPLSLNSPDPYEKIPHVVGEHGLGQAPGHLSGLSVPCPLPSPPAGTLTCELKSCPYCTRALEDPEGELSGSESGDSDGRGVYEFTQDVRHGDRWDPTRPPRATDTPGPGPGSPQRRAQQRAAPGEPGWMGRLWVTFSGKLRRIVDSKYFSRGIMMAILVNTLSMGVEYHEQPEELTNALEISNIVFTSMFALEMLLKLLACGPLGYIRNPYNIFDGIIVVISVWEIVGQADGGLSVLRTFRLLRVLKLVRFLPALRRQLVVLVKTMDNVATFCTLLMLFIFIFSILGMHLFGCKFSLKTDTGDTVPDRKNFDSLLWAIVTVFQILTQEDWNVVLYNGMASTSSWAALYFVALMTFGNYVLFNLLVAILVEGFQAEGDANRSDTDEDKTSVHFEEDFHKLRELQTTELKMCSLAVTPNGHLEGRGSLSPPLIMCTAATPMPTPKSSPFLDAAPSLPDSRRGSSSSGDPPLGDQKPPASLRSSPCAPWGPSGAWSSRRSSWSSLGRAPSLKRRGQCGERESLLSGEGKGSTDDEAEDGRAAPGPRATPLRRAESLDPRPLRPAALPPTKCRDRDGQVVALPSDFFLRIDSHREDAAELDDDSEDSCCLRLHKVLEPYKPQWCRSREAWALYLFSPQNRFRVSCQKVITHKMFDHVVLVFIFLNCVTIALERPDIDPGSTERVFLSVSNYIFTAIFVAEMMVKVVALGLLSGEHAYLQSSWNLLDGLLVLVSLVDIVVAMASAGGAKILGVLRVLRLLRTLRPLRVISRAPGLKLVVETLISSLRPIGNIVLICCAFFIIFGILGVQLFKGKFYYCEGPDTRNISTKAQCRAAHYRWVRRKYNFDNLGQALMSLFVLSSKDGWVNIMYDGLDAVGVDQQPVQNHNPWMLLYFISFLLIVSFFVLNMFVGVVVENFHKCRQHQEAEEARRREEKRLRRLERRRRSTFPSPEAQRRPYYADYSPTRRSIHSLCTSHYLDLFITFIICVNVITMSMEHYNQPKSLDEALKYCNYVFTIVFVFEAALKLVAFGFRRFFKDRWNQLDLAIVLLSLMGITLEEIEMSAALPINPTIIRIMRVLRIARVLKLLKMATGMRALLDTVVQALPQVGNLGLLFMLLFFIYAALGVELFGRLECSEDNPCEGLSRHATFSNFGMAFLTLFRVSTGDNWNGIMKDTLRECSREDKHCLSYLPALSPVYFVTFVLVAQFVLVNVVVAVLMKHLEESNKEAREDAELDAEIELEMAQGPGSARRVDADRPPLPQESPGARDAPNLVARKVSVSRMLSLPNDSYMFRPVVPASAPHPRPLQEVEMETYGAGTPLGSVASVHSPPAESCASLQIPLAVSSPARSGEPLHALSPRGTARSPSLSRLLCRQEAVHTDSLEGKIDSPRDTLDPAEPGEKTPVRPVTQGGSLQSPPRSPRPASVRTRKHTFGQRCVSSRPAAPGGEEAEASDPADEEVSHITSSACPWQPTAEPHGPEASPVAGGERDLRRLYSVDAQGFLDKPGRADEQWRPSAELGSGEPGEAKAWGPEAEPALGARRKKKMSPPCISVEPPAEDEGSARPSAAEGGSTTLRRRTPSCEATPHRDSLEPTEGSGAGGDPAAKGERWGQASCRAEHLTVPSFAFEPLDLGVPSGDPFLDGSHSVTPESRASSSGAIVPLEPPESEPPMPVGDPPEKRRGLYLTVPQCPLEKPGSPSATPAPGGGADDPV
A further series has as its system Plasma. Nature of the series: (§1) Protein binding in rat plasma. Format: ADME, cell-free.
Series [2] has as its target Transient receptor potential cation channel subfamily V member 1 (Homo sapiens) (UniProt Q8NER1). Nature of the series: Inhibition of TRPV1 expressed in HEK293 assessed as capsaicin activation cells at 3.3 ug/mL by FLIPR assay. Format: cell-based.
The subject of series [3] is Rattus norvegicus. Nature of the series: In vivo inhibition of TRPV1 activation in SNL rat at 10 mg/kg, po. Format: functional, organism-based. The arrangement: dose 10 mg/kg.
Series [4] relates to Rattus norvegicus. Nature of the series: In vivo inhibition of TRPV1 activation in SNL rat at 30 mg/kg, po. It is filed as functional, organism-based. The arrangement: dose 30 mg/kg.
Series [5] is described as follows: as §1. Format: ADME, cell-free. The conditions noted are these: read-out: PPB (converted).
Series [6] addresses T1, Voltage-dependent T-type calcium channel subunit alpha-1H. Nature of the series: Inhibition of human CaV3.2 expressed in HEK293 cells at -100 mV membrane potential by whole cell path clamp method. Format: cell-based.
The subject of series [7] is Rattus norvegicus. Nature of the series: Plasma concentration in SNL rat at 10 mg/kg, po. Format: ADME, organism-based. The arrangement: dose 10 mg/kg, route oral. The conditions noted are these: in vivo.
The target in a further series is Cytochrome P450 3A4 (Homo sapiens, UniProt P08684). Nature of the series: Inhibition of CYP3A4 coincubated with compound. Format: ADME. The conditions noted are these: read-out: INH.
Chain of Cytochrome P450 3A4 (P08684 whole entry): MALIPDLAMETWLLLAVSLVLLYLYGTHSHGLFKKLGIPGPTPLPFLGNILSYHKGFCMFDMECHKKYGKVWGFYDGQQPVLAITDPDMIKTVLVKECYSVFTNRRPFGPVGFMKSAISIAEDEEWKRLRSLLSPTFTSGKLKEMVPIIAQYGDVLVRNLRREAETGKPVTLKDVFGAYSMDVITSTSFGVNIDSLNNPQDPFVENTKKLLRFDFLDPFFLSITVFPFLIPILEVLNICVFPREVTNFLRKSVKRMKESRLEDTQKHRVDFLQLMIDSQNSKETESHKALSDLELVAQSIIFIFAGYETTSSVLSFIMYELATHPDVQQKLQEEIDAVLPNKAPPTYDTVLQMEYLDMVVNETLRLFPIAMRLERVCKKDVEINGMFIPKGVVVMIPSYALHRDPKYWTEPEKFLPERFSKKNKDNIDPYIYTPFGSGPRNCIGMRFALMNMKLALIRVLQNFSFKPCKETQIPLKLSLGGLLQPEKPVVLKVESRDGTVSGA
The target in series [8] is T2, Cytochrome P450 2D6 (Homo sapiens, UniProt P10635). Nature of the series: Inhibition of CYP2D6 coincubated with compound. Format: ADME.
T2 sequence (P10635 whole entry): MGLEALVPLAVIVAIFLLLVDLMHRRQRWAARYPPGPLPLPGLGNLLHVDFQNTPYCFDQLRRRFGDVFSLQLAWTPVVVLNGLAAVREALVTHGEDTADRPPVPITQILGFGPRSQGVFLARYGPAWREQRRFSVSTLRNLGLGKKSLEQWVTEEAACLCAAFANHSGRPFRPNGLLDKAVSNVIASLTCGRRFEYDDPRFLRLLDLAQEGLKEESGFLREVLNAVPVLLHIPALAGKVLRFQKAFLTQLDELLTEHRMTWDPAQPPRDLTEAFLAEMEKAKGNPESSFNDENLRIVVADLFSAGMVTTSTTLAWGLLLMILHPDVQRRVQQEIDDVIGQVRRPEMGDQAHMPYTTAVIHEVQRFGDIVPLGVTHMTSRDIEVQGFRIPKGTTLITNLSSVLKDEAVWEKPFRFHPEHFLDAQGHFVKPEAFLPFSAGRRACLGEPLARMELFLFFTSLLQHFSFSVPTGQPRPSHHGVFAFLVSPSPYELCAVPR
Series [9] deals with T3, Cytochrome P450 2C9 (Homo sapiens, UniProt P11712). Nature of the series: Inhibition of CYP2C9 coincubated with compound. The conditions noted are these: read-out: INH. Format: ADME.
T3 sequence (P11712 whole entry): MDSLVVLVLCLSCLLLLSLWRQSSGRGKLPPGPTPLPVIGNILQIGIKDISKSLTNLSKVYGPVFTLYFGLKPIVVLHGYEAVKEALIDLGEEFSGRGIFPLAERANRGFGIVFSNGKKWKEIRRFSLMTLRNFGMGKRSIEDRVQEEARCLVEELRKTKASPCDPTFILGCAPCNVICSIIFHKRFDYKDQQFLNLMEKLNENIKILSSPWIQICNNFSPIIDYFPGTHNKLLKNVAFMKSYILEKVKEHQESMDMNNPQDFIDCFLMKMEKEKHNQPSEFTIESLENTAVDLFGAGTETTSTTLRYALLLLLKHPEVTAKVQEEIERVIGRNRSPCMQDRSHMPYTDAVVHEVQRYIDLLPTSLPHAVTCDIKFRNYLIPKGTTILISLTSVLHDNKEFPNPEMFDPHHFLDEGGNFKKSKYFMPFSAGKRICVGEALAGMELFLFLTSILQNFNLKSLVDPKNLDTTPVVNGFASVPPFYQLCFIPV
Series [10] concerns the target T2, Cytochrome P450 2D6. Nature of the series: Inhibition of CYP2D6 preincubated with compound. Format: ADME.
The target in series [11] is T3, Cytochrome P450 2C9. Nature of the series: Inhibition of CYP2C9 preincubated with compound. It is filed as ADME. The conditions noted are these: read-out: INH.
Series [12] can be described thus: Permeability across human Caco-2 cells. It is filed as ADME, cell-based. The conditions noted are these: read-out: permeability.
The next series is filed under the species Homo sapiens. Nature of the series: Protein binding in human plasma. The conditions noted are these: read-out: PPB (converted).
Series [13] in a line: AUC in po dosed rat. Format: ADME, organism-based. The conditions noted are these: plasma.
The test system of series [14] is Rattus norvegicus. Nature of the series: Plasma concentration in SNL rat at 100 mg/kg, po. Format: ADME, organism-based. Also on record: dose 100 mg/kg, route oral. The conditions noted are these: in vivo.
Series [15] deals with Rattus norvegicus. Nature of the series: In vivo inhibition of TRPV1 activation in SNL rat at 30 and 60 mg/kg, po. Format: functional, organism-based. Also on record: dose 60 mg/kg.
Series [16] concerns Rattus norvegicus. Nature of the series: In vivo inhibition of TRPV1 activation in SNL rat at 100 mg/kg, po. Format: functional, organism-based. Also on record: dose 100 mg/kg.
Series [17] relates to Rattus norvegicus. Nature of the series: In vivo inhibition of TRPV1 activation in SNL rat at 50 mg/kg, po. The arrangement: dose 50 mg/kg. Format: functional, organism-based.

Active and inactive are the calls of the source. No cut-off for these calls is given here.

Usually inhibition stands for the drop in the measured response relative to a control, in per cent. In general, AUC refers to the area under the concentration-time curve, a measure of exposure. Read a high AUC as high exposure.

Chain of Transient receptor potential cation channel subfamily V member 1 (Homo sapiens) (Q8NER1 whole entry): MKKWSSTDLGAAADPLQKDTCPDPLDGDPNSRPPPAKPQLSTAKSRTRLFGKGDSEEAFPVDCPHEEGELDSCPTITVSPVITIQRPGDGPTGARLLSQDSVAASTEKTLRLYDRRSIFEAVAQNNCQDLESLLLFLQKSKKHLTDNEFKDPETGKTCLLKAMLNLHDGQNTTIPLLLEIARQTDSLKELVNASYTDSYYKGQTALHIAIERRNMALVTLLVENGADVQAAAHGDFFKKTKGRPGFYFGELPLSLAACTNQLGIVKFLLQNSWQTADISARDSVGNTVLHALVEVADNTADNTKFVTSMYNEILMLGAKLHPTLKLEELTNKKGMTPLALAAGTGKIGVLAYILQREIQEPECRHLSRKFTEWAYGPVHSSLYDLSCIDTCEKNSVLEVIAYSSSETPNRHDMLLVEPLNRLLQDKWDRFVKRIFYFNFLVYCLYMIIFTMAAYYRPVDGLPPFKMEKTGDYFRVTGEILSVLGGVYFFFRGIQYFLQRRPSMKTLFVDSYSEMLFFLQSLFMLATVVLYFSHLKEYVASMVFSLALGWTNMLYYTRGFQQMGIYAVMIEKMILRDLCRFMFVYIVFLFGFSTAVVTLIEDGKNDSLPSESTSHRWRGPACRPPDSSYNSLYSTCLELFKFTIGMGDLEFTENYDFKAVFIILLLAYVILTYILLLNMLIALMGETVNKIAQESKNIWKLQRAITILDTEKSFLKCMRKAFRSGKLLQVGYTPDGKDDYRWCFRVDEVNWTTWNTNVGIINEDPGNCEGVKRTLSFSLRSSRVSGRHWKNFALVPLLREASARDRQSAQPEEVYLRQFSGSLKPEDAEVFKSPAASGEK

Consider `O=C(Nc1ccc(F)c(F)c1)N1CCC2(CC1)C(=O)N(c1cccc(Cl)c1)C2c1ccccn1` (stereo in doubt; 42b), for which the IC50 in series [1] was determined as 652 nM. Further, the PPB with Plasma was determined as 99.9%.

For `O=C1N(c2ccc(F)c(Cl)c2)C(c2ccccn2)C12CCN(c1nc3cc(F)c(C(F)(F)F)cc3[nH]1)CC2` (stereo in doubt; 52b), the inhibition in [2] amounted to 59.8%. Also, the inhibition entry in the series with Rattus norvegicus [3] was “inactive”.

As for `O=C(Nc1cccc(C(F)(F)F)c1)N1CCC2(CC1)C(=O)N(c1ccc(F)c(F)c1)C2c1ccccn1` (stereo in doubt; 41a), the inhibition result in the series on Rattus norvegicus [4] was “inactive”.

`O=C(Nc1cccc(C(F)(F)F)c1)N1CCC2(CC1)C(=O)N(c1ccc(F)c(F)c1)C2c1ccccn1` (stereo in doubt; 411b): the figures for the IC50 in series [1] and in [6] were 176 nM and 283 nM, respectively. In [5], the fraction unbound is 0.005. For the same compound, the concentration with Rattus norvegicus [7] turned out to be 2100 nM.

Take `CC[C@H](C)[C@H](NC(=O)N1CCC2(CC1)CN(C(C)C)C2c1ccc(Cl)cc1)C(=O)OC` (stereo in doubt; 2): the IC50 in series [1] is 104 nM; on Cytochrome P450 3A4, > 30 µM; at Cytochrome P450 2C9 [9] it was > 30 µM; on Cytochrome P450 2C9 [11], > 30 µM; in series [6] it was 123 nM. The INH at Cytochrome P450 2D6 [8] was determined as 0.9 µM; on Cytochrome P450 2D6 [10], 8.1 µM. In addition, the Papp in [12] was 13.4 ×10⁻⁶ cm/s.

`N#Cc1cccc(NC(=O)N2CCC3(CC2)C(=O)N(c2cccc(Cl)c2)C3c2ccccn2)c1` (stereo in doubt; 43a): the IC50 in series [1] was 57 nM. The same compound had a PPB with Plasma of 99.2%. Further, the fraction unbound in the series listed under Homo sapiens was 0.013.

For `O=C1N(c2ccc(F)c(Cl)c2)C(c2ccccn2)C12CCN(c1nc3cc(F)c(C(F)(F)F)cc3[nH]1)CC2` (stereo in doubt; 52a) [listing 1 of 2 here], in series [1], the IC50 amounted to 29 nM. Moreover, in [13], the AUC stood at 0.814 µM·h. Besides, in the series on Rattus norvegicus [14], the concentration turned out to be 3.4 µM.

In the case of `CC(C)N1CC2(CCN(C(=O)Nc3ccc(F)c(F)c3)CC2)C1c1ccc(Cl)cc1` (stereo not drawn), the IC50 in series [1] was 174 nM; at Cytochrome P450 3A4, > 30 µM; at Cytochrome P450 2C9 [9], > 30 µM; on Cytochrome P450 2C9 [11] it was > 30 µM; in [6] it was 340 nM. In [2], the inhibition stood at 64%. For the same compound, the figures for the INH at Cytochrome P450 2D6 [8] and on Cytochrome P450 2D6 [10] were 0.9 µM and 8.1 µM, respectively. The Papp in [12] came out at 18.7 ×10⁻⁶ cm/s.

As for `N#Cc1cccc(NC(=O)N2CCC3(CC2)C(=O)N(c2cccc(Cl)c2)C3c2ccccn2)c1` (stereo in doubt; 43b), the inhibition in [2] was determined as 25%. Also, the inhibition entry with Rattus norvegicus [4] was “inactive”.

Consider `O=C(Nc1cc(F)cc(F)c1)N1CCC2(CC1)C(=O)N(c1cccc(Cl)c1)C2c1ccccn1` (stereo in doubt; 44b) [listing 1 of 2 here], for which the inhibition in series [2] turned out to be 36%. Besides, the inhibition entry in the series with Rattus norvegicus [4] and with Rattus norvegicus [15] was “inactive” throughout.

Regarding `O=C1N(c2ccc(F)c(Cl)c2)C(c2ccccn2)C12CCN(c1nc3cc(F)c(Cl)cc3[nH]1)CC2` (stereo not drawn), the IC50 in [1] is 60 nM; in series [6], 84 nM. In series [2], the inhibition is 8.6%. The fraction unbound in [5] is 0.002.

As for `O=C(Nc1cc(F)cc(F)c1)N1CCC2(CC1)C(=O)N(c1ccc(F)c(Cl)c1)C2c1ccccn1` (stereo in doubt; 39a) [listing 1 of 2 here], the inhibition result with Rattus norvegicus [16] is “inactive”.

In the series with Plasma, `O=C(Nc1ccc(F)c(F)c1)N1CCC2(CC1)C(=O)N(c1cccc(Cl)c1)C2c1ccccn1` (stereo in doubt; 42a) [listing 1 of 2 here] registered a PPB of 98.8%. In addition, the fraction unbound in the series filed under Homo sapiens is 0.001.

As for `O=C(Nc1cc(F)cc(F)c1)N1CCC2(CC1)CN(c1ccc(F)c(Cl)c1)C2c1ccccn1` (stereo in doubt; 38a), the values for the IC50 in series [1] and in series [6] were 60 nM and 41 nM, respectively. Further, the PPB in the series on Plasma is 99.9%.

Consider `O=C1N(c2ccc(F)c(Cl)c2)C(c2ccccn2)C12CCN(c1nc3ccc(Cl)cc3[nH]1)CC2` (stereo not drawn), for which the results for the IC50 in [1] and in [6] were 78 nM and 71 nM, respectively. The compound further came in with an AUC in series [13] of 41.2 µM·h. In addition, the inhibition in series [2] came to 86.2%.

As for `O=C(Nc1cc(F)cc(F)c1)N1CCC2(CC1)C(=O)N(c1ccc(F)c(Cl)c1)C2c1ccccn1` (stereo in doubt; 39b), the inhibition result with Rattus norvegicus [3] and in the series on Rattus norvegicus [17] was “inactive” throughout.

As for `O=C1N(c2ccc(F)c(Cl)c2)C(c2ccccn2)C12CCN(c1nc3cc(F)c(C(F)(F)F)cc3[nH]1)CC2` (stereo in doubt; 52a) [listing 2 of 2 here], the inhibition in [2] stood at 92%. For the same compound, in the series on Rattus norvegicus [3], the inhibition entry was “inactive”.

Turning to `O=C(Nc1ccc(F)c(F)c1)N1CCC2(CC1)C(=O)N(c1ccc(F)c(Cl)c1)C2c1ccccn1` (stereo in doubt; 40a), the IC50 in series [1] stood at 41 nM; in [6], 17700 nM. Also, in series [5], the fraction unbound is 0.004.

Take `CN1C(=O)C2(CCN(C(=O)Nc3cc(F)cc(F)c3)CC2)C1c1ccc(Cl)cc1` (racemic): in series [1], the IC50 was 920 nM. Further, the inhibition in [2] was 20.7%. Moreover, the fraction unbound in [5] was 0.034.

For `O=C(Nc1cc(F)cc(F)c1)N1CCC2(CC1)C(=O)N(c1cccc(Cl)c1)C2c1ccccn1` (stereo in doubt; 44a), the IC50 was found to be 18 nM in [1] and 3490 nM in series [6]. The PPB in the series with Plasma came out at 98.9%. The fraction unbound in the series listed under Homo sapiens is 0.003.

Take `CC(C)N1CC2(CCN(C(=O)Nc3cc(F)cc(F)c3)CC2)C1c1ccc(Cl)cc1` (stereo not drawn): the IC50 in series [1] was 138 nM; at Cytochrome P450 3A4, > 30 µM; at Cytochrome P450 2C9 [9], > 30 µM; on Cytochrome P450 2C9 [11], > 30 µM; in series [6], 328 nM. Also, the inhibition in series [2] was 19.1%. For the same compound, the INH turned out to be 0.9 µM on Cytochrome P450 2D6 [8] and 3.6 µM at Cytochrome P450 2D6 [10]. Besides, in series [12], the Papp is > 7.34 ×10⁻⁶ cm/s.

For the compound `O=C(Nc1cc(F)cc(F)c1)N1CCC2(CC1)C(=O)N(c1ccc(F)c(Cl)c1)C2c1ccccn1` (stereo in doubt; 39a) [listing 2 of 2 here], the IC50 stood at 4 nM in series [1] and 42 nM in series [6]. Further, the fraction unbound is 0.004 in series [5] and 0.001 in the series listed under Homo sapiens. Further, the concentration in the series on Rattus norvegicus [14] turned out to be 3.4 µM.

For `O=C(Nc1ccc(F)c(F)c1)N1CCC2(CC1)C(=O)N(c1cccc(Cl)c1)C2c1ccccn1` (stereo in doubt; 42a) [listing 2 of 2 here], in [2], the inhibition was 82.7%. The inhibition result with Rattus norvegicus [4] was “inactive”.

Regarding `O=C(Nc1cc(F)cc(F)c1)N1CCC2(CC1)C(=O)N(c1cccc(Cl)c1)C2c1ccccn1` (stereo in doubt; 44b) [listing 2 of 2 here], the IC50 in series [1] turned out to be 200 nM. In the series on Plasma, this compound displayed a PPB of 99.5%.
